Measurements as given in patent US20230364084A1, “METHODS FOR PREVENTING OR TREATING CONDITIONS RELATED TO PIKFYVE ACTIVITY” (The Regents of the University of Michigan, priority 2020, published 2023).

Columns and labels:
Myc-CaP tumors = assay: Myc-CaP syngeneic murine prostate model in FVB mice; format: in vivo, mouse
Experimental: MYC-driven murine prostate cancer cells (Myc-CaP) were injected at a density of 1×10^6 subcutaneously into both flanks of 4- to 6-week old FVB mice (Charles River Laboratories) in serum-free medium with 50% Matrigel. When tumors reached ˜50 mm^3, tumor-bearing mice were randomized and treated with 15 mg/kg or 30 mg/kg ESK981 or vehicle (ORA-PLUS) by oral gavage 5 days per week. For the ESK981 and anti-PD-1 combination study, 15 mg/kg ESK981 or vehicle were given 5 days per week by oral gavage, while anti-PD-1 (Cat No. BE0146, BioXcell) or isotype control (Cat No. BE0089, BioXcell) were given at 200 μg per mouse 3 times per week by intraperitoneal injection (i.p.). For the ESK981 and anti-CXCR3 combination study, 15 mg/kg ESK981 or vehicle were given 5 days per week by oral gavage, while anti-CXCR3 (Cat No. BE0249, BioXcell) or isotype control (Cat No. BE0091, BioXcell) were given at 100 μg per mouse 3 times per week by i.p. For the shPikfyve study, Myc-CaP shPikfyve cells were injected at a density of 2×10^6 subcutaneously into both flanks of 4- to 6-week old NSG or FVB mice in serum-free medium with 50% Matrigel. When tumors reached 100 mm^3, tumor-bearing mice were randomized and treated with normal diet or doxycycline 625 mg/kg diet (Envigo). For the shPikfyve and anti-PD-1 combination study, Myc-CaP shPikfyve cells were injected at a density of 2×10^6 subcutaneously into both flanks of 4- to 6-week old FVB mice in serum-free medium with 50% Matrigel. When tumors reached 100 mm^3, tumor-bearing mice were randomized and treated with normal diet or doxycycline 625 mg/kg diet for 7 days, and then anti-PD-1 or isotype control were given at 200 μg per mouse 3 times per week in combination with normal or doxycycline diet.

[1] = tested on: lysosomes in VCaP, LNCaP, PC3 and DU145 cells; assay: LysoTracker Green flow cytometry; format: cell-based, human; conditions: four prostate cancer cell lines, 24 hours, increasing concentrations
Experimental: Cells were grown in 6-well plates and treated with various drugs. After 24 hours, cells were stained with LysoTracker® Green DND-26 (Invitrogen), and green fluorescence signal was analyzed by flow cytometry.

PIKfyve = PIKfyve (Homo sapiens, UniProt Q9Y2I7); assay: lipid kinase competition assay (scanLIPID panel, 22 lipid kinases); format: binding; design: purchased DiscoveRX (KINOMEscan scanLIPID panel; KdELECT); conditions: 1 μM ESK981, only target among 22 phosphoinositide kinases
Sequence of PIKfyve (Q9Y2I7 whole entry): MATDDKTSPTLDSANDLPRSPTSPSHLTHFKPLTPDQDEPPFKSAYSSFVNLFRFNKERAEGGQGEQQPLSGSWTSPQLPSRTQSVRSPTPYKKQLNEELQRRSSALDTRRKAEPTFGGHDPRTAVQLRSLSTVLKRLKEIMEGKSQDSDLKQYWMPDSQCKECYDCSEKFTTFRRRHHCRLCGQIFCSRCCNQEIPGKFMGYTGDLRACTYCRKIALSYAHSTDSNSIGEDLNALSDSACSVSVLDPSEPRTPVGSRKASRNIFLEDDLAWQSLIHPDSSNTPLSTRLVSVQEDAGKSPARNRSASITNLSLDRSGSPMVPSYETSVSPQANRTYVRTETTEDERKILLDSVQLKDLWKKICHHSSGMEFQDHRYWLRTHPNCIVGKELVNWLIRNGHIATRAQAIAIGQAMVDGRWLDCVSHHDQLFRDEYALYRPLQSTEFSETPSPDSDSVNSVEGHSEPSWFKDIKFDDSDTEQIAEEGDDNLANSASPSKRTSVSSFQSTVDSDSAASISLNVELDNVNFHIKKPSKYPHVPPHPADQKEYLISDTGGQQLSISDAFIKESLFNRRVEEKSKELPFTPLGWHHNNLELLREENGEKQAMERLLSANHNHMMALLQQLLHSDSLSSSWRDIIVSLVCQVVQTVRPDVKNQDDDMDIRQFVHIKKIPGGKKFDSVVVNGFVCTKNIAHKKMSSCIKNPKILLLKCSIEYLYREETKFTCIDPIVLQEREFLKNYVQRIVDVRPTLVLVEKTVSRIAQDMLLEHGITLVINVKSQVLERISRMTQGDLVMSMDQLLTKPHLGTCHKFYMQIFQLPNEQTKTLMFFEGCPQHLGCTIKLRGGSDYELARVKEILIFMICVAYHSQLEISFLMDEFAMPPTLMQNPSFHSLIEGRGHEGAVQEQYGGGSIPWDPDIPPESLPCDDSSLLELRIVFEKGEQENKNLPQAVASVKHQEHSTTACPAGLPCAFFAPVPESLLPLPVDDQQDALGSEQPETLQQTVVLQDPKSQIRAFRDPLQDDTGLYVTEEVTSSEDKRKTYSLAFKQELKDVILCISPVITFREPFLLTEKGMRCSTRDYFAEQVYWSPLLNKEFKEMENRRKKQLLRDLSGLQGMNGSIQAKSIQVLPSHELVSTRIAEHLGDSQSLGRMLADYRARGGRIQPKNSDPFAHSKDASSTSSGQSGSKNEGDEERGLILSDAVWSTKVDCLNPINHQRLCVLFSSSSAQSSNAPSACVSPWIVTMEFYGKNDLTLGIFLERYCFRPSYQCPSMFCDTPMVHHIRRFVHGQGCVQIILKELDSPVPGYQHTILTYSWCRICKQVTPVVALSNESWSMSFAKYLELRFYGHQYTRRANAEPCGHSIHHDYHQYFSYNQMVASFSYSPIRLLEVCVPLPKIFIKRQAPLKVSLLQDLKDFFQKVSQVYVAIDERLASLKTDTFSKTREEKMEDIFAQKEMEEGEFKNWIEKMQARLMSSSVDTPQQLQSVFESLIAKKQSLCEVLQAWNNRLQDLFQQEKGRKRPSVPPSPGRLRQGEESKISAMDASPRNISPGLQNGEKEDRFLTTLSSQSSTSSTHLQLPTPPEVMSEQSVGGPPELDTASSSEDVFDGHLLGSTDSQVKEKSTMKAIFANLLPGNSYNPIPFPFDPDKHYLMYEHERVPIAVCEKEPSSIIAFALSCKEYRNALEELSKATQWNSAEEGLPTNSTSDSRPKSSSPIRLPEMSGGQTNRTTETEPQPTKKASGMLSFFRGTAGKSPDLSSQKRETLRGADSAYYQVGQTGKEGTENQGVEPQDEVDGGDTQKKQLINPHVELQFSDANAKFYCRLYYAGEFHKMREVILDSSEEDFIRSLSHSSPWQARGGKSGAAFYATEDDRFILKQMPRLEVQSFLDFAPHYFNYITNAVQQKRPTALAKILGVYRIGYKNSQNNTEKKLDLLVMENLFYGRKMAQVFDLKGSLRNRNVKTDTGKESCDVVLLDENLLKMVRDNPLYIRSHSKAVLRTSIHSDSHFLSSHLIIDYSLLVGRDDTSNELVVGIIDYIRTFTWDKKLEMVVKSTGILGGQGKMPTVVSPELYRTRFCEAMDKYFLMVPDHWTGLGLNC
Experimental: Lipid kinase competition assays for 22 lipid kinases, including clinically-relevant mutants, were performed using DiscoveRX KINOEscan® platform scanLIPID® panel. Detailed information is described on the DiscoveRX website (https://www.discoverx.com/technologies-platforms/competitive-binding-technology/kinomescan-technology-platform).

[2] = tested on: autophagosomes in LNCaP, VCaP and DU145 cells; assay: CYTO-ID autophagosome detection; format: cell-based, human; conditions: 24 hours
Experimental: 10,000 cells were plated in 96-well plates and incubated with 300 nM of the various compounds for 24 hours. Autophagy activities were detected with CYTO-ID® Autophagy detection kit (Cat No. ENZ-KIT175, Enzo Life Science) according to the manufacturer's instructions, with fluorescence intensity measured on a TECAN M1000 plate reader. Autophagosome induction factor was calculated according to the manufacturer's instructions.

[3] = tested on: invasive prostate cancer cell lines; assay: Matrigel invasion assay; format: cell-based, human; conditions: four invasive prostate cancer cell lines, 24-hour incubation
Experimental: 2-5×10^5 cells were seeded onto 8-μm Matrigel-coated fluoroblok transwells with serum-free medium and various concentrations of ESK981. Medium containing 10% FBS in the lower chamber served as a chemoattractant. After 24-hour incubation, invaded cells were stained with […] at 37° C., and fluorescence intensity was quantified with a TECAN M1000 plate reader.

[4] = 15 mg/kg solo treatment, four weeks

Compound: CC(C)Cn1c2ccc(Nc3ncccn3)cc2c2c3c(c4c(c21)CCc1nn(C)cc1-4)C(=O)NC3 [ESK981, 13-isobutyl-4-methyl-10-(pyrimidin-2-ylamino)-1,2,4,7,8,13-hexahydro-6H-indazolo[5,4-a]pyrrolo[3,4-c]carbazol-6-one]
- effect of co-treatment on the anti-PD-1 tumor inhibitory effect (Myc-CaP tumors; 15 mg/kg ESK981 with anti-PD-1, 6 weeks): strongly enhanced
- Cd3 mRNA in tumors (Myc-CaP tumors; [4]): upregulated
- Cxcl10 mRNA in tumors (Myc-CaP tumors; [4]): upregulated
- Cd3 mRNA levels in tumors (Myc-CaP tumors; 15 mg/kg, 30 mg/kg): dose-dependent upregulation
- tumor doubling time (progression-free survival) (Myc-CaP tumors; 15 mg/kg, 30 mg/kg): significantly increased tumor doubling time
- average Cxcl10 levels in tumors (Myc-CaP tumors; 15 mg/kg, 30 mg/kg, dose-dependent): significantly increased
- tumor growth (Myc-CaP tumors; 15 mg/kg, 30 mg/kg, oral gavage 5 days per week, three weeks): dose-dependent growth inhibition
- LC3 lipidation in tumors (Myc-CaP tumors; 15 mg/kg, five days of treatment): elevated LC3 lipidation
- bioluminescent-negative tumors (Myc-CaP tumors; 30 mg/kg group, day 19): five out of ten
- CD3+ T cell trafficking in the tumor microenvironment (Cd3 RNA ISH) (Myc-CaP tumors; single agents): increased
- lysosome quantity (LysoTracker Green) [1]: Increased ESK981 lysosome quantity was observed in a dose-dependent manner
- competition in affinity binding screen (PIKfyve): completely competed away
- rank in autophagosome induction among compound libraries ([2]; DU145 cells, 300 nM, vs 154 autophagy-related compounds and 167 tyrosine kinase inhibitors): highest potency at inducing autophagosome levels
- autophagosome signals (CYTO-ID fluorescence intensity) ([2]; LNCaP, VCaP and DU145 cells, increasing concentrations): dose-dependent induction of autophagosome signals
- level of autophagosome induction compared with rapamycin ([2]; VCaP and LNCaP cells): higher than a known autophagy activator, the mTOR inhibitor rapamycin
- invasion [3]: inhibited invasion in a dose-dependent manner
